From publication PMC8372404 (Frontiers in Neuroscience, 2021)
Where a SMILES comes first, the peptide text is derived from it.

How the values were obtained:
[1] = Preliminary pharmacokinetic studies; type: in vivo; details: preliminary and ongoing pharmacokinetic studies
[2] = system: Danio rerio; assay: Novel tank test (NTT); type: in vivo; details: exp group
Description: (§1) Control groups were treated in parallel with vehicle alone. For drug injection, the fish were anesthetized briefly by placing them in 10°C water. The vehicle controls were tested in parallel.
(§2) Behavioral testing was initiated 10 min after drug injection, starting with the novel tank test (NTT), followed immediately thereafter by the light–dark box (LDB) and the social preference test (SPT). The NTT was adapted from [Maximino et al. (2013)] with the behavior video-recorded and the data processed using EthoVision XT14 (Noldus). The distance traveled, speed, number of visits to the bottom, middle and top thirds of the aquarium, respectively, and the times spent in each of these zones during the initial 5 min in the tank were recorded. A decreased time spent at the surface of the NTT apparatus reflects a reduction in exploratory behavior or increased hiding motivation ([Sackerman et al., 2010]). The behavior in the LDB ([Maximino et al., 2011]) and SPT ([Parker et al., 2014]) was video recorded and processed using RealTimer (Open Science LCC, Russia). The fish were added to the center zone of a three-zone aquarium and allowed to adapt for 1–2 min before removal of the septa separating the center from the flanking zones. The time spent and the number of visits to the light and dark flanking zones and the latency to enter the lit zone were recorded during a 5-min session. Stress of fish is associated with increased time spent in the dark compartment (scototaxis) ([Maximino et al., 2011]). For the SPT, the residence time and the number of visits to the three equally sized zones (near the shoal, in the center zone of the aquarium, and near the wall opposite to the shoal) were assessed during a 5-min session. Increased shoal preference (shoaling reflex) is thought to represent a protective response to a predator ([Nguyen et al., 2014]). All behavioral testing was done in the light phase using 500 lux (NTT, LDB) or 200 lux (SPT) illumination.

[3] = system: Danio rerio; assay: Light–dark box (LDB); type: in vivo; details: for LDB. Time spent in lit compartment, Median: 5 min session, exp group
Description: as §1, §2

[4] = system: Danio rerio; assay: Social preference test (SPT); type: in vivo; details: for SPT. Time spent out of shoaling zone, Median: 5 min session, exp group
Description: as §1, §2

[5] = system: BALB/c mice; assay: Elevated plus maze (EPM); type: in vivo
Description: The open field test (OFT) was used to assess locomotion. The total distance traveled in a 5 min session was recorded using Ethovision XT14 ([Prut and Belzung, 2003]). The elevated plus maze (EPM) and the marble burying test (MBT) were used to assess anxiolytic-like drug activity. For the EPM ([Pellow et al., 1985]), the percentage of time spent in the open arms, the percentage of open arm entries, and the number of total arm entries during a 5-min session were recorded using Ethovision. “Anxiety Index” (AI), an integrative behavioral measure in the EPM was calculated as follows: 100 × {1 − [(time spent on open arms/total time on the maze)/2 + (number of entries to the open arms/total exploration on the maze)/2]} ([Cohen et al., 2011]). The MBT ([Njung’e and Handley, 1991]) was carried out in a 19 × 29 × 13 cm cage filled 5 cm deep with wood-chip bedding. Twenty marbles (5.2 g, 15 mm diameter, randomly colored) were evenly placed on the surface of the bedding in four rows of five pieces. At the end of a 30 min test, the animal was removed, and the marbles buried in bedding by at least two-thirds were recorded. […] The forced swim test (FST) was used for a preliminary assessment of antidepressant drug activity as described ([Colelli et al., 2014]). Briefly, on day one the mice were exposed to a 10 min pre-swim in a cylinder filled with 24 ± 1°C water. The next day they were re-exposed to the same apparatus for a 5 min test session with the behavior video recorded. The total time spent immobile was quantitated off-line visually. The interval between sequential behavioral tests was 2–3 days with the sequence OFT, EPM, MBT, and FST. All the testing and data analyses were performed by experimenters blind to treatment.

[6] = system: BALB/c mice; assay: Open field test (OFT); type: in vivo; details: diazepam 0.75 mg/kg
Description: (§3) The open field test (OFT) was used to assess locomotion. The total distance traveled in a 5 min session was recorded using Ethovision XT14 ([Prut and Belzung, 2003]). The elevated plus maze (EPM) and the marble burying test (MBT) were used to assess anxiolytic-like drug activity. For the EPM ([Pellow et al., 1985]), the percentage of time spent in the open arms, the percentage of open arm entries, and the number of total arm entries during a 5-min session were recorded using Ethovision. “Anxiety Index” (AI), an integrative behavioral measure in the EPM was calculated as follows: 100 × {1 − [(time spent on open arms/total time on the maze)/2 + (number of entries to the open arms/total exploration on the maze)/2]} ([Cohen et al., 2011]). The MBT ([Njung’e and Handley, 1991]) was carried out in a 19 × 29 × 13 cm cage filled 5 cm deep with wood-chip bedding. Twenty marbles (5.2 g, 15 mm diameter, randomly colored) were evenly placed on the surface of the bedding in four rows of five pieces. At the end of a 30 min test, the animal was removed, and the marbles buried in bedding by at least two-thirds were recorded. […] The next day they were re-exposed to the same apparatus for a 5 min test session with the behavior video recorded. The total time spent immobile was quantitated off-line visually. […]

[7] = system: BALB/c mice; assay: Marble burying test (MBT); type: in vivo; details: diazepam 0.75 mg/kg
Description: as §3

[8] = system: BALB/c mice; assay: Forced swim test (FST); type: in vivo; details: LCGA-17 5 mg/kg (none of the other dosages); diazepam 0.75 mg/kg
Description: as §3

[9] = target: [3H]-LCGA-17 binding site in rat brain membranes (putative α2δ); assay: [3H]-LCGA-17 radioligand competition binding assay; details: rat brain membranes
[10] = LCGA-17 groups 1, 5, 10, 20 mg/kg combined
[11] = LCGA-17 20 mg/kg + bicuculline 5 mg/kg
[12] = bicuculline study: LCGA-17 20 mg/kg or bicuculline 5 mg/kg alone

## NC(=O)CC[C@H](NC(=O)[C@@H](N)Cc1ccccc1)C(=O)N[C@@H](CO)C(=O)N[C@@H](CCC(=O)O)C(=O)O [LCGA-17, PheGlnSerGlu] (H-FQSE-OH; N-terminus and C-terminus assumed)
[1]
  in vivo half-life: minutes

## CN1C(=O)CN=C(c2ccccc2)c2cc(Cl)ccc21 [Diazepam]
[2]; 1.25 mg/kg
  NTT. Distance traveled, Median: 887 cm
[2]; 5 mg/kg
  NTT. Distance traveled, Median: 595 cm
[3]; 1.25 mg/kg
  LDB. Time spent in lit compartment, Median: 21 s
[3]; 5 mg/kg
  LDB. Time spent in lit compartment, Median: 177 s
[3]; most informative dosage, Figure 2C
  LDB, effect on time spent in the lit compartment vs vehicle: anxiolytic-like effect
[4]; 1.25 mg/kg
  SPT. Time spent out of shoaling zone, Median: 20 s
[4]; 5 mg/kg
  SPT. Time spent out of shoaling zone, Median: 21 s
[4]; most informative dosage, Figure 2D
  SPT, effect on time spent out of the shoaling zone vs vehicle: anxiolytic-like effect
[5]; mouse, in vivo
  EPM, effect on percentage of time spent on open arms vs vehicle: increased
[6]; LCGA-17 5, 20 mg/ml as printed, 5 min session
  OFT, effect on distance traveled vs vehicle: modestly increased
[6]; [10]
  OFT, effect on distance traveled vs vehicle: increased
[7]; LCGA-17 5, 20 mg/kg, 30 min test
  MBT, effect on number of marbles buried vs vehicle: reduced
[7]; [10]
  MBT, effect on number of marbles buried vs vehicle: reduced
[8]
  FST, effect on total time spent immobile vs vehicle: failed to affect the behavior

## CN1CCc2cc3c(cc2[C@H]1[C@@H]1OC(=O)c2c1ccc1c2OCO1)OCO3 [Bicuculline]
[9]; competition of [3H]-LCGA-17 (16 nM) binding, Table S1
  IC50: > 100 µM
[9]; result in words
  cross-reactivity with / competition at the [3H]-LCGA-17 binding site: no cross-reactivity
[5]; [11]
  EPM, effect of co-administered bicuculline on the LCGA-17 effect on % time on open arms: completely blocked
  EPM, effect of co-administered bicuculline on the LCGA-17 effect on open arm entries: reduced the LCGA-17 effect
  EPM, effect of cotreatment with bicuculline on the LCGA-17 effect on AI: reversed
[5]; bicuculline 5 mg/kg alone
  EPM, effect on open arm entries, single agent: without effects
[5]; bicuculline 5 mg/kg main effect, post hoc pairwise comparisons not significant
  EPM, effect on total arm entries: slightly reduced
[5]; [12]
  EPM, effect on % time on open arms, single agent: no effect
  EPM, effect on Anxiety Index (AI), single agent: without effects
